From patent US9463256B2, “Pretargeting kit, method and agents used therein” (KONINKLIJKE PHILIPS N.V., priority 2010, dated 2016)

Experiments:
[1] = Second order kinetic constants of the reactions between CC49-TCO constructs and ^177Lu-28; assay type: physicochemical; conditions: for Second order kinetic constant, PEG10 Spacer / Second order kinetic constant, No Spacer: TCO conjugated to CC49, reaction with ^177Lu-28 in PBS, pH 7.4 at 37° C.; for Second order kinetic constant: new TCOs conjugated to CC49, reaction with ^177Lu-28, procedures of Example 5
Procedure: Typically, 1 mg CC49 (5 mg/mL solution in PBS) was modified with 0.6 molar (for kinetic measurements) or 10 molar eq. (for in vivo studies) of TCO-NHS constructs in a total volume of 250 μL PBS. The pH was adjusted to 9 with 1 M sodium carbonate buffer. The reactions were carried out under agitation for 30 min at RT in the dark. Subsequently, the TCO-modified mAbs were extensively washed with PBS using Amicon Ultra-15 centrifugal devices. The numbers of TCO groups per antibody were determined with a tetrazine titration, outlined below.
Tetrazine-DOTA 28 was radiolabeled with carrier-added ^177Lu. mAb (25 μg) modified with ca. 0.6 molar eq. TCO was reacted with 3 molar eq. of ^177Lu-28 (0.5 nM). mAb (25 μg) modified with ca. 10 molar eq. TCO was reacted with 15 molar eq. of ^177Lu-28 (2.5 nM). The reactions were carried out in 50 μL PBS pH 7.4 at 37° C. for 10 min. The reaction mixtures were analyzed by SDS-PAGE and phosphor imager and the reaction yields were determined from the radioactivity in the bands corresponding to the mAb. The counts were quantified with AIDA Image Analyzer software (Raytest).
Tetrazine-DOTA 28 was radiolabeled with carrier-added ^177Lu at a specific activity of 3 MBq/μg. ^177Lu-28 (33 nM) was reacted with increasing concentrations of CC49 modified with 1 eq. of TCO (0.33, 1, and 1.67 μM) in 200 μL PBS, pH 7.4 at 37° C. for 5 min. At selected times (15, 30, 45, 60, 90, 120, 180, and 300 sec) a 20 μL sample was withdrawn and quenched with tetrazine 6 (FIG. 5; described in Rossin et al. Angew Chem Int Ed 2010, 49, 3375) (1.5 μL, 5 mg/mL in DMF). Aliquots of each mixture were analyzed by SDS-PAGE and phosphor imager and the cycloaddition yields were determined from the radioactivity in the bands corresponding to the mAb. The counts were quantified with AIDA Image Analyzer software (Raytest).
The newly synthesized TCO constructs were evaluated with respect to their reactivity towards tetrazine 28. The procedures are described in Example 5.

[2] = test system: LS174T tumor model; test: Biodistribution of ^177Lu-tetrazine 28 in tumor bearing mice pretargeted with CC49-TCO 44b; assay type: in vivo, Nude female Balb/C mice; conditions: 3 h after injection, 50 h after ^125I-CC49-TCO-44b, two doses of clearing agent
Procedure: (§1) LS174T tumor model. The human colon cancer cell line LS174T was obtained from the ATCC and maintained in Eagle's minimal essential medium (Sigma) supplemented with 10% heat inactivated fetal calf serum (Gibco), penicillin (100 U/mL), streptomycin (100 μg/mL) and 2 mM Glutamax. Nude female Balb/C mice (20-25 g body weight, Charles River Laboratories) were inoculated subcutaneously with 5×10^6 cells in 100 μL sterile PBS.
Tumor-bearing mice (see Methods; 100 mm^3 tumor size; n=4) were injected with ^125I-CC49 functionalized with 7.5 TCO 44b groups (100 μg/mouse, ca. 0.2 MBq). Thirty and 48 hours post-mAb injection the mice received one dose of clearing agent (galactose-MSA-tetrazine, 160 μg/dose) followed 2 h later by ^177Lu-tetrazine 28 (10 eq. with respect to the mAb, ca. 0.5 MBq). Three hours post-tetrazine injection the mice were anesthetized and sacrificed by cervical dislocation, blood was withdrawn by heart puncture, organs and tissues of interest were harvested and blotted dry. All collected samples were weighed and added with 1 mL PBS. The sample radioactivity was measured in a gamma-counter with a dual-isotope protocol (10-80 keV window for ^125I and 155-380 keV window for ^177Lu) along with standards to determine the percent injected dose per gram tissue (% ID/g).

[3] = test system: LS174T tumor model; test: Biodistribution experiments in tumor bearing mice pretargeted with CC49-TCO constructs; assay type: in vivo, Nude female Balb/C mice; conditions: for ^177Lu-tetrazine in Blood / ^177Lu-tetrazine in Bone / ^177Lu-tetrazine in Brain / ^177Lu-tetrazine in Heart / ^177Lu-tetrazine in Kidney / ^177Lu-tetrazine in Liver / ^177Lu-tetrazine in Lung / ^177Lu-tetrazine in Muscle / ^177Lu-tetrazine in Spleen / ^177Lu-tetrazine in Tumor: 3 h after injection
Procedure: as §1
Dual isotope biodistribution experiments were performed by injecting tumor bearing mice (n=3) intravenously with ^125I-labeled CC49-TCO constructs with and without PEG10 spacer (100 μg/100 μL per mouse, ca. […] 0.8 MBq). Three hours after tetrazine administration, the animals were anesthetized with isoflurane and sacrificed by cervical dislocation. Blood was withdrawn by heart puncture and organs and tissues of interest were harvested, blotted dry and weighed. The radioactivity of the samples was measured in a γ-counter along with standards to determine the % ID/gram. The energy windows were set to 10-80 keV and 100-510 keV for ^125I and ^111In, respectively.

[4] = 1 day pretargeting with CC49-23a
[5] = 4 days pretargeting with CC49-23a

## O=C(CCOCCOCCOCCOCCOCCOCCOCCOCCOCCOCCOCCOCCNC(=O)c1ccc(NC(=O)OC2CC/C=C/CCC2)cc1)ON1C(=O)CCC1=O (centres unmarked) [27a, (E-major)-2,5-dioxopyrrolidin-1-yl 1-(4-(((cyclooct-4-en-1-yloxy)carbonyl)amino)phenyl)-1-oxo-5,8,11,14,17,20,23,26,29,32,35,38-dodecaoxa-2-azahentetracontan-41-oate]
[1]
  Second order kinetic constant, PEG10 Spacer: (27a) 11030 ± 250 M^−1s^−1

## O=C(ON1C(=O)CCC1=O)c1ccc(OC2CC/C=C/CCC2)cc1 (single isomer, unassigned) [52a, (E-Major)-2,5-dioxopyrrolidin-1-yl 4-(cyclooct-4-en-1-yloxy)benzoate]
[1]
  Second order kinetic constant: 20930 ± 3735 M⁻¹ s⁻¹

## O=C(CCOCCOCCOCCOCCOCCOCCOCCOCCOCCOCCOCCOCCNC(=O)c1ccc(COC2CC/C=C/CCC2)cc1)ON1C(=O)CCC1=O (centres unmarked) [23b, (E-minor)-2,5-Dioxopyrrolidin-1-yl 1-(4-((cyclooct-4-en-1-yloxy)methyl)phenyl)-1-oxo-5,8,11,14,17,20,23,26,29,32,35,38-dodecaoxa-2-azahentetracontan-41-oate]
[1]
  Second order kinetic constant, PEG10 Spacer: (23b) 156400 ± 3100 M^−1s^−1

## O=C(ON1C(=O)CCC1=O)C(OC1CC/C=C/CCC1)c1ccccc1 (single isomer, unassigned) [46b, (E-Minor)-2,5-dioxopyrrolidin-1-yl 2-(cyclooct-4-en-1-yloxy)-2-phenylacetate]
[1]
  Second order kinetic constant: 163200 ± 2871 M⁻¹ s⁻¹

## O=C(ON1C(=O)CCC1=O)C(OC1CC/C=C/CCC1)c1ccccc1 (single isomer, unassigned) [46a, (E-Major)-2,5-dioxopyrrolidin-1-yl 2-(cyclooct-4-en-1-yloxy)-2-phenyl acetate]
[1]
  Second order kinetic constant: 28630 ± 1590 M⁻¹ s⁻¹

## CC(C)(OC1CC/C=C/CCC1)C(=O)ON1C(=O)CCC1=O (single isomer, unassigned) [49b, (E-Minor)-2,5-dioxopyrrolidin-1-yl 2-(cyclooct-4-en-1-yloxy)-2-methylpropanoate]
[1]
  Second order kinetic constant: 148500 ± 12040 M⁻¹ s⁻¹

## O=C(COC1CC/C=C/CCC1)ON1C(=O)CCC1=O (single isomer, unassigned) [44a, (E-Major)-2,5-dioxopyrrolidin-1-yl 2-(cyclooct-4-en-1-yloxy)acetate]
[1]
  Second order kinetic constant: 20640 ± 485 M⁻¹ s⁻¹

## O=C(ON1C(=O)CCC1=O)c1ccc(OC2CC/C=C/CCC2)cc1 (single isomer, unassigned) [52b, (E-Minor)-2,5-dioxopyrrolidin-1-yl 4-(cyclooct-4-en-1-yloxy)benzoate]
[1]
  Second order kinetic constant: 333300 ± 625 M⁻¹ s⁻¹

## O=C(Nc1ccc(C(=O)ON2C(=O)CCC2=O)cc1)OC1CC/C=C/CCC1 (centres unmarked) [14b, (E-minor)-2,5-dioxopyrrolidin-1-yl 4-(((cyclooct-4-en-1-yloxy)carbonyl)amino)benzoate]
[1]
  Second order kinetic constant, No Spacer: (14b) 66550 ± 8800 M^−1s^−1

## CC1(CC(=O)ON2C(=O)CCC2=O)CC/C=C/CCC1 (centres unmarked) [compound 58, (E-Major,minor)-2,5-Dioxopyrrolidin-1-yl 2-(1-methylcyclooct-4-en-1-yl)acetate]
[1]
  Second order kinetic constant: 323500 ± 43320 M⁻¹ s⁻¹

## CC(C)(OC1CC/C=C/CCC1)C(=O)ON1C(=O)CCC1=O (single isomer, unassigned) [49a, (E-Major)-2,5-dioxopyrrolidin-1-yl 2-(cyclooct-4-en-1-yloxy)-2-methylpropanoate]
[1]
  Second order kinetic constant: 25080 ± 3865 M⁻¹ s⁻¹

## O=C(Nc1ccc(C(=O)ON2C(=O)CCC2=O)cc1)OC1CC/C=C/CCC1 (centres unmarked) [14a, (E-major)-2,5-dioxopyrrolidin-1-yl 4-(((cyclooct-4-en-1-yloxy)carbonyl)amino)benzoate]
[1]
  Second order kinetic constant, No Spacer: (14a) 11350 ± 550 M^−1s^−1

## O=C(COC1CC/C=C/CCC1)ON1C(=O)CCC1=O (single isomer, unassigned) [44b, (E-Minor)-2,5-dioxopyrrolidin-1-yl 2-(cyclooct-4-en-1-yloxy)acetate]
[1]
  Second order kinetic constant: 134800 ± 997 M⁻¹ s⁻¹

## O=C([O-])CN1CCN(CC(=O)[O-])CCN(CC(=O)NCCOCCOCCOCCOCCOCCOCCOCCOCCOCCOCCOCCNC(=O)CCCC(=O)Nc2ccc(-c3nnc(-c4ccccn4)nn3)nc2)CCN(CC(=O)[O-])CC1.[177Lu+3] [^177Lu-tetrazine 28]
[2]
  Tumor/Blood ratio, ^177Lu-tetrazine: 304 ± 80
  Tumor/Bone ratio, ^177Lu-tetrazine: 142 ± 59
  Tumor/Brain ratio, ^177Lu-tetrazine: 1674 ± 243
  Tumor/Heart ratio, ^177Lu-tetrazine: 187 ± 20
  Tumor/Kidney ratio, ^177Lu-tetrazine: 6 ± 2
  Tumor/Liver ratio, ^177Lu-tetrazine: 50 ± 10
  Tumor/Lung ratio, ^177Lu-tetrazine: 39 ± 8
  Tumor/Muscle ratio, ^177Lu-tetrazine: 328 ± 96
  Tumor/Spleen ratio, ^177Lu-tetrazine: 108 ± 22
  ^177Lu-tetrazine in Blood: 0.03 ± 0.00 % ID/gram
  ^177Lu-tetrazine in Bone: 0.08 ± 0.04 % ID/gram
  ^177Lu-tetrazine in Brain: 0.01 ± 0.00 % ID/gram
  ^177Lu-tetrazine in Heart: 0.05 ± 0.01 % ID/gram
  ^177Lu-tetrazine in Kidney: 1.50 ± 0.24 % ID/gram
  ^177Lu-tetrazine in Liver: 0.19 ± 0.02 % ID/gram
  ^177Lu-tetrazine in Lung: 0.24 ± 0.02 % ID/gram
  ^177Lu-tetrazine in Muscle: 0.03 ± 0.00 % ID/gram
  ^177Lu-tetrazine in Spleen: 0.09 ± 0.01 % ID/gram
  ^177Lu-tetrazine in Tumor: 9.25 ± 2.16 % ID/gram
[3]; [4]
  ^177Lu-tetrazine in Blood: 1.06 ± 0.34 % ID/gram
  ^177Lu-tetrazine in Bone: 0.11 ± 0.02 % ID/gram
  ^177Lu-tetrazine in Brain: 0.03 ± 0.02 % ID/gram
  ^177Lu-tetrazine in Heart: 0.20 ± 0.02 % ID/gram
  ^177Lu-tetrazine in Kidney: 1.73 ± 0.31 % ID/gram
  ^177Lu-tetrazine in Liver: 0.61 ± 0.15 % ID/gram
  ^177Lu-tetrazine in Lung: 0.32 ± 0.03 % ID/gram
  ^177Lu-tetrazine in Muscle: 0.06 ± 0.03 % ID/gram
  ^177Lu-tetrazine in Spleen: 0.30 ± 0.09 % ID/gram
  ^177Lu-tetrazine in Tumor: 3.09 ± 0.01 % ID/gram
[3]; 1 day pretargeting with CC49-23a, listed as 177Lu-tetrazine
  ^177Lu-tetrazine in Tumor: 3.09±0.01 % ID/gram
[3]; [5]
  ^177Lu-tetrazine in Blood: 0.04 ± 0.01 % ID/gram
  ^177Lu-tetrazine in Bone: 0.06 ± 0.01 % ID/gram
  ^177Lu-tetrazine in Brain: 0.01 ± 0.00 % ID/gram
  ^177Lu-tetrazine in Heart: 0.04 ± 0.00 % ID/gram
  ^177Lu-tetrazine in Kidney: 1.73 ± 0.22 % ID/gram
  ^177Lu-tetrazine in Liver: 0.31 ± 0.03 % ID/gram
  ^177Lu-tetrazine in Lung: 0.13 ± 0.05 % ID/gram
  ^177Lu-tetrazine in Muscle: 0.02 ± 0.01 % ID/gram
  ^177Lu-tetrazine in Spleen: 0.20 ± 0.00 % ID/gram
  ^177Lu-tetrazine in Tumor: 0.86 ± 0.39 % ID/gram
[3]; 4 days pretargeting with CC49-23a, listed as 177Lu-tetrazine
  ^177Lu-tetrazine in Tumor: 0.86±0.39 % ID/gram
[3]; ^177Lu-tetrazine administered 4 days after the mAb CC49-23a
  tumor-to-blood ratio (T/B): 21.3±4.0
[3]; ^177Lu-tetrazine, mice pre-treated with CC49-23a 24 h before injection of the tetrazine
  tumor-to-blood ratio (T/B): 3.1±1.0
